Structures can show the parent of a compound that is named as a salt.
Columns and labels:
Format in all cases: physicochemical
[1] = Hygroscopicity by DVS at 25° C.
Procedure: DVS was measured via a SMS (Surface Measurement Systems) DVS Intrinsic. The relative humidity at 25° C. were calibrated against deliquescence point of LiCl, Mg(NO3)2 and KCl.

[2] = Solid state stability at 25° C./60% RH and 40° C./75% RH for 1 week; settings: for HPLC peak Area, RRT 1.00: main peak
Procedure: Each sample was added into a glass vial, sealed by parafilm with several holes, and kept under tested conditions. After one week, samples were taken for XRPD and HPLC purity test.

[3] = Approximate solubility in different solvents at RT
Procedure: For each experiment, approximately 2 mg of sample was added into a 3-mL glass vial. Corresponding solvents were then added stepwise (50/50/200/700/1000 μL) into the vials until the solids were dissolved visually or a total volume of 2 mL was reached. Solubility results summarized in Table 64 to Table 66 were used to guide the solvent selection in polymorph screening design.

[4] = Competitive experiments of Type A and Type B in different solvent system at different temperature; settings: different ratio of DMSO/EA system at different temperature
[5] = pH solubility in pH 1.0-8.0 buffers at RT; settings: thermodynamic from solid; for solubility: pH buffers, 2 and 24 hours
Procedure: The procedures were listed below:
1. […] Add 2 ml, of the corresponding medium.
2. Mixed well and stirred at RT (1000 rpm). Check the pH and adjust it back to the target pH after dosing.
3. Sampled after 2 hours and 24 hours. The supernatant was isolated by centrifugation (12000 rpm, 5 min) and filtration (0.22 μm, PTFE) for pH and HPLC test.

N#Cc1ccc(COc2cccc(C3CCN(Cc4nc5ccc(C(=O)O)cc5n4Cc4cncs4)CC3)n2)c(F)c1 [Meglumine salt Type A]
water uptake (DVS) ([1]; 25° C./80% RH): 1.43%
hygroscopicity ([1]; DVS, 25° C.): slightly hygroscopic
Water uptake at 25° C./80% RH ([1]; DVS, 25° C./80% RH): 1.43 wt %
For change after DVS ([1]; XRPD after DVS test): No
form change after DVS test (XRPD) ([1]; after DVS test): no form change
HPLC peak Area, RRT 0.70 ([2]; 25° C./60% RH, 1 week): 0.07%
HPLC peak Area, RRT 0.73 ([2]; 25° C./60% RH, 1 week): 0.14%
HPLC peak Area, RRT 0.80 ([2]; 25° C./60% RH, 1 week): 0.05%
HPLC peak Area, RRT 0.83 ([2]; 25° C./60% RH, 1 week): 1.93%
HPLC peak Area, RRT 0.90 ([2]; 25° C./60% RH, 1 week): 0.12%
HPLC peak Area, RRT 0.99 ([2]; 25° C./60% RH, 1 week): <0.05%
HPLC peak Area, RRT 1.05 ([2]; 25° C./60% RH, 1 week): 0.28%
HPLC peak Area, RRT 1.10 ([2]; 25° C./60% RH, 1 week): 0.23%
HPLC peak Area, RRT 1.12 ([2]; 25° C./60% RH, 1 week): <0.05%
HPLC peak Area, RRT 1.15 ([2]; 25° C./60% RH, 1 week): 0.11%
HPLC peak Area, RRT 1.34 ([2]; 25° C./60% RH, 1 week): 0.08%
HPLC peak Area, RRT 1.00 ([2]; 25° C./60% RH, 1 week): 96.98%
Form change ([2]; 25° C./60% RH/Open/1 week): No
Purity ([2]; 25° C./60% RH/Open/1 week): 96.98 Area %
solid-state stability: form change and purity decrease ([2]; 25° C./60% RH/open and 40° C./75% RH/open, 1 week): no form change or significant purity decrease
HPLC peak Area, RRT 0.70 ([2]; 40° C./75% RH, 1 week): 0.06%
HPLC peak Area, RRT 0.73 ([2]; 40° C./75% RH, 1 week): 0.15%
HPLC peak Area, RRT 0.80 ([2]; 40° C./75% RH, 1 week): 0.05%
HPLC peak Area, RRT 0.83 ([2]; 40° C./75% RH, 1 week): 1.96%
HPLC peak Area, RRT 0.90 ([2]; 40° C./75% RH, 1 week): 0.11%
HPLC peak Area, RRT 0.99 ([2]; 40° C./75% RH, 1 week): <0.05%
HPLC peak Area, RRT 1.05 ([2]; 40° C./75% RH, 1 week): 0.28%
HPLC peak Area, RRT 1.10 ([2]; 40° C./75% RH, 1 week): 0.34%
HPLC peak Area, RRT 1.12 ([2]; 40° C./75% RH, 1 week): <0.05%
HPLC peak Area, RRT 1.15 ([2]; 40° C./75% RH, 1 week): 0.13%
HPLC peak Area, RRT 1.34 ([2]; 40° C./75% RH, 1 week): 0.05%
HPLC peak Area, RRT 1.00 ([2]; 40° C./75% RH, 1 week): 96.88%
Form change ([2]; 40° C./75% RH/Open/1 week): No
Purity ([2]; 40° C./75% RH/Open/1 week): 96.88 Area %
HPLC peak Area, RRT 0.70 ([2]; Initial): 0.07%
HPLC peak Area, RRT 0.73 ([2]; Initial): 0.13%
HPLC peak Area, RRT 0.80 ([2]; Initial): 0.05%
HPLC peak Area, RRT 0.83 ([2]; Initial): 1.95%
HPLC peak Area, RRT 0.90 ([2]; Initial): 0.12%
HPLC peak Area, RRT 0.99 ([2]; Initial): 0.11%
HPLC peak Area, RRT 1.05 ([2]; Initial): 0.28%
HPLC peak Area, RRT 1.10 ([2]; Initial): 0.24%
HPLC peak Area, RRT 1.12 ([2]; Initial): 0.05%
HPLC peak Area, RRT 1.15 ([2]; Initial): 0.11%
HPLC peak Area, RRT 1.34 ([2]; Initial): 0.16%
Purity ([2]; Initial): 96.73 Area %
HPLC peak Area, RRT 1.00 ([2]; Initial): 96.73%
Approximate solubility ([3]; 2-MeTHF, RT): S < 1.0 mg/mL
Approximate solubility ([3]; ACN, RT): S < 1.0 mg/mL
Approximate solubility ([3]; Acetone, RT): S < 1.1 mg/mL
Approximate solubility ([3]; Anisole, RT): S < 1.1 mg/mL
Approximate solubility ([3]; CHCl3, RT): S < 1.0 mg/mL
Approximate solubility ([3]; CPME, RT): S < 1.0 mg/mL
Approximate solubility ([3]; DCM, RT): S < 1.1 mg/mL
Approximate solubility ([3]; EtOAc, RT): S < 1.1 mg/mL
Approximate solubility ([3]; H2O, RT): S > 44.0 mg/mL
Approximate solubility ([3]; IPA, RT): S < 1.1 mg/mL
Approximate solubility ([3]; IPAc, RT): S < 1.0 mg/mL
Approximate solubility ([3]; MIBK, RT): S < 1.0 mg/mL
Approximate solubility ([3]; MTBE, RT): S < 1.0 mg/mL
Approximate solubility ([3]; THF, RT): S < 1.1 mg/mL
Approximate solubility ([3]; Toluene, RT): S < 1.2 mg/mL
Approximate solubility ([3]; n-Heptane, RT): S < 1.0 mg/mL
thermodynamic stability, Type A versus Type B [4]: thermodynamically more stable
solubility at 2 h ([5]; pH 3.5 buffer, pH 3.5, aqueous buffer, LOQ = 0.0001 mg/mL): 21 µg/mL
solubility at 2 h ([5]; pH 4.5 buffer, pH 4.5, aqueous buffer, LOQ = 0.0001 mg/mL): 3.7 µg/mL
solubility at 24 h ([5]; pH 4.5 buffer, pH 4.5, aqueous buffer, 24 Hours, LOQ = 0.0001 mg/mL): 0.1 µg/mL
solubility at 2 h ([5]; pH 5.5 buffer, pH 5.5, aqueous buffer, LOQ = 0.0001 mg/mL): 2.8 µg/mL
solubility ([5]; pH 1, aqueous buffer, pH 1.0 and 8.0 buffers): 150 to 1300 µg/mL
solubility ([5]; pH 2, aqueous buffer, pH 2.0 and 6.8 buffers): 16 to 200 µg/mL
solubility ([5]; pH 3.5, aqueous buffer, pH 3.5, 4.5 and 5.5 buffers): ≤ 21 µg/mL

Reference: patent publication US20240360122A1, “POLYMORPHIC FORMS AND SALTS OF A GLP-1R AGONIST” (Terns (Suzhou) Biotechnology Co., Ltd., priority 2023, published 2024)
